Reference: patent US10021879B2, “Fumigant compositions and methods based on hexafluoropropylene oxide (HFPO)” (priority 2016, dated 2018)

Tests used:
[1] = system: Abutilon theophrasti Medik; assay: Fumigant test on seed germination in soil, Abutilon theophrasti Medik; format: in vivo; conditions: for Abutilon theophrastic Medik (seeds germinated): 14 seeds in soil, 2 days exposure, counted after 10 days
Description: (§1) In particular, in 440 mL pressure vessels, fourteen seeds of Abutilon theophrasti Medik and fifteen seeds of Lolium multiflorum Lam were thoroughly mixed with 50 mL (approximately 30 grams) of soil and 6 ml of water. The filled vessels were kept at room temperature for 20-24 hours to allow the seeds to imbibe water before treatment. The vessels were sealed and evacuated, and then 80 ml, 160 ml and 440 ml, respectively, of gaseous HFPO was added. The vessels were thoroughly mixed and placed horizontally on the laboratory bench at ambient temperature for two days. The contents of each bottle were transferred to a plastic sterile Petri dish containing 7 mL of water. The Petri dishes were sealed with parafilm and incubated in the laboratory at ambient temperature. After 10 days, the number of germinated seeds was counted.

Lolium multiflorum Lam = assay: Fumigant test on seed germination in soil, Lolium multiflorum Lam; format: in vivo; conditions: for Loliium multiflorum Lam (seeds germinated): 15 seeds in soil, 2 days exposure, counted after 10 days
Description: as §1

[2] = Volatility of aqueous fumigant compositions with and without surfactant (weight loss); format: physicochemical; conditions: 10 grams HFPO + 4.0 grams Tween 80 in 40.0 grams water vs. 10.0 grams HFPO in 40 grams water; 20° C., vent open, weight loss every 30 seconds; FIG. 1
Description: Experimentation was carried out to determine the volatility of aqueous fumigant compositions, both with and without inclusion of a surfactant. In each case, HFPO was placed in a chilled 500 ml Fischer Porter tube that was equipped with a vent to remove any gases. The vessel was cooled to 0° C. and was charged with varying amounts of water, HFPO and surfactant. The temperature was equilibrated to 20° C. and the reactor was placed on a balance. The vent tube was opened and the weight loss was recorded every 30 seconds.
In analyzing the effects of adding surfactant to an aqueous solution of HFPO, 10.0 grams of HFPO was added to 40 grams of water. In a separate experiment, 10 grams of HFPO and 4.0 grams of Tween™ 80 were added to 40.0 grams of water. FIG. 1 provides a graphical representation of the numerical data comparing the volatility of an aqueous solution of HFPO, both with and without inclusion of the Tween™ 80 nonionic surfactant.

[3] = 80 ml gaseous HFPO in 440 mL vessel
[4] = 160 ml gaseous HFPO in 440 mL vessel
[5] = 440 ml gaseous HFPO in 440 mL vessel

Structure (SMILES): FC(F)(F)C1(F)OC1(F)F (stereo not drawn) [HFPO, 1,2-hexafluoropropylene oxide]
- Abutilon theophrastic Medik (seeds germinated) [1, 3]: 0 seeds germinated
- Abutilon theophrastic Medik (seeds germinated) [1, 4]: 0 seeds germinated
- Abutilon theophrastic Medik (seeds germinated) [1, 5]: 0 seeds germinated
- seed germination (in words) ([1]; seeds of the broadleaf species Abutilon theophrasti Medik): completely prevented seed germination
- Loliium multiflorum Lam (seeds germinated) (Lolium multiflorum Lam; [3]): 0 seeds germinated
- Loliium multiflorum Lam (seeds germinated) (Lolium multiflorum Lam; [4]): 0 seeds germinated
- Loliium multiflorum Lam (seeds germinated) (Lolium multiflorum Lam; [5]): 0 seeds germinated
- seed germination (in words) (Lolium multiflorum Lam; seeds of the grass weed species Lolium multiflorum Lam): completely prevented seed germination
- retention of HFPO in aqueous solution (volatility) [2]: inclusion of the surfactant provides for longer retention of the HFPO in solution
